What was measured:
[1] = system: human subjects with T2DM inadequately controlled on insulin glargine in combination with metformin; experiment: Example 3: 26-week open-label trial, IDegLira vs IGlar, both in combination with metformin; assay type: in vivo; conditions: 26 weeks of treatment
Procedure: A 26-week multinational, multi-centre, open-label, two-arm parallel, randomised, treat-to-target trial in 557 human subjects with T2DM inadequately controlled on insulin glargine (IGlar, Lantus®) at a daily dose between 20-50 units (both inclusive) in combination with metformin was carried out. The primary objective was to confirm the efficacy of IDegLira in controlling glycaemia in human subjects with T2DM on previous treatment with IGlar. The secondary objective was to compare safety of IDegLira to IGlar after 26 weeks of treatment and to confirm superiority of IDegLira versus IGlar after 26 weeks of treatment on one or more of the following: change from baseline in HbA1c, confirmed hypoglycaemia, change from baseline in body weight.
IGlar was given at a start dose equal to the pre-trial daily dose of IGlar (dose-to-dose switch) and was titrated according to a predefined titration algorithm with no maximum dose.
The trial included a screening visit to assess subjects' eligibility and weekly visits/phone contacts during the 26-week treatment period.
Subjects randomised to treatment with IDegLira discontinued the pre-trial IGlar treatment prior to initiating IDegLira treatment with a start dose of 16 dose steps, equivalent to 16 units insulin degludec and 0.6 mg liraglutide. […] Subjects randomised for treatment with IGlar […] on the pre-trial, stable IGlar treatment prior to initiating IGlar treatment with a start dose of IGlar equal to the pretrial daily dose (dose-to-dose switch). No predefined maximum dose was specified for IGlar treatment.
Subjects received IDegLira or IGlar by subcutaneous administration once daily in addition to metformin. […] IGlar was to be injected according to the approved label and using the pre-trial dosing time and injection site throughout the trial.

[2] = system: adult human subjects with type 2 diabetes that were at high risk for cardiovascular events; experiment: Cardiovascular outcomes trial (DEVOTE): insulin degludec vs insulin glargine, time to first MACE; assay type: in vivo; conditions: for Hazard Ratio (95% CI), time to first MACE: insulin degludec vs insulin glargine
Description: This trial concerned incidence of cardiovascular events in adult human subjects with type 2 diabetes that were at high risk for cardiovascular events, including such subjects with existing cardiovascular disease. The primary objective of this trial was to confirm the cardiovascular safety of insulin degludec (Tresiba®) compared to that of insulin glargine (Lantus®). The secondary objective was to assess efficacy of insulin degludec on markers of glycaemic control and to assess safety on other parameters in subjects with type 2 diabetes that were at high risk for cardiovascular events.
An 18-month recruitment period was planned. […] Subjects were randomised 1:1 in a double-blinded manner to receive blinded insulin degludec or blinded insulin glargine, each added to standard of care. Subjects continued their current antidiabetic therapy except for the basal insulin component (if any), which was replaced by the investigational product. Treatment with bolus insulin was allowed.
Subjects not currently on insulin were to initiate basal insulin at a dose of 10 units OD given between dinner and bedtime. Subjects receiving basal insulin OD were to transfer unit-to-unit from their previous basal insulin dose. Subjects receiving twice-daily (or more) basal insulin transferred to an OD regimen and the pre-trial total basal insulin dose was reduced by 20-30% in accordance with the label for insulin glargine. For subjects receiving premixed/biphasic insulin OD, the basal component was calculated and transferred unit-to-unit to investigational product OD. The bolus insulin component was calculated and transferred unit-to-unit to bolus insulin and given at the most appropriate meal at the investigator's discretion. For subjects receiving premixed/biphasic insulin twice daily (or more), the total basal component was calculated, reduced by 20-30% and transferred to investigational product OD; the bolus component was to be calculated and transferred to insulin aspart and dosed with the most appropriate meals at the investigator's discretion. Subjects treated with bolus insulin as part of their current insulin regimen could be transferred to insulin aspart unit-to-unit from their previous bolus insulin dose, at the investigator's discretion.
Subjects adjusted their basal insulin dose weekly, aiming for a pre-breakfast (fasting) SMPG value of 71-90 mg/dL (4.0-5.0 mmol/L) by using the algorithm in Table 6. The basal dose was adjusted based on the lowest of three pre-breakfast SMPG values, preferably measured two days prior to dose adjustment and on the day of the dose adjustment. No maximum dose was specified. The investigators were to guide the subjects in adjusting their insulin at clinic visits and phone contacts. Investigators and subjects were recommended to follow the basal insulin titration algorithm. Importantly, however, the decision of adjustment of insulin doses was to be based on all available information, such as symptoms of hypoglycaemia and hyperglycaemia, previous responses to dose adjustments and SMPG values other than those required as per protocol.
Intensification with bolus insulin and other antidiabetic treatments was allowed during the course of the trial. The starting dose of bolus insulin was 4 units per relevant meal. […] Titration of bolus insulin could also be done based on carbohydrate counting. This was to be done at the investigator's discretion.
Subjects received insulin degludec or insulin glargine by subcutaneous administrations once daily in addition to the subject's standard treatment. Basal insulin was injected in the thigh, the upper arm (deltoid area) or the abdominal wall. The formulations were administered in the form of an aqueous solution comprising insulin degludec or insulin glargine, using identical 100 units/mL, 10-mL vials and 1-mL syringes.
The results of this trial may be presented herein as a number or fraction of subjects experiencing an event.

[3] = system: human subjects with type 2 diabetes inadequately controlled with basal insulin and metformin; conditions: in vivo
Procedure: (§1) A 26-week randomised, parallel two-arm, double-blind, multi-centre, multinational, treat-to-target trial in 413 human subjects with type 2 diabetes inadequately controlled with basal insulin and metformin with or without SU or glinides was carried out comparing the efficacy and safety of insulin degludec+liraglutide (Xultophy®, IDegLira) once daily with insulin degludec (Tresiba®, IDeg) once daily both added on to metformin. […] The secondary objective was to compare the overall efficacy and safety parameters of IDegLira and IDeg after 26 weeks of treatment. All trial endpoints were collected and assessed throughout the entire duration of the trial.
(§2) Eligible subjects were randomised 1:1 to either once daily IDegLira or once daily IDeg, both in combination with metformin. […] For each subject, the duration of the trial was to be approximately 29 weeks: up to 2 weeks between screening and first treatment, 26 weeks of treatment and at least 1 week of wash-out at the end of the trial.
(§3) The IDegLira dosing unit is defined as a dose step. One (1) IDegLira dose step consists of 1 unit insulin degludec and 0.036 mg liraglutide. Treatment with IDegLira was initiated at 16 dose steps containing 16 units insulin degludec and 0.6 mg liraglutide. Adjustment of the IDegLira dose was performed twice weekly based on the mean of 3 preceding daily fasting SMPG values on 3 consecutive days. Adjustments occurred in 2 dose steps aiming at a fasting glycaemic target of 4.0-5.0 mmol/L (72-90 mg/dL). The maximum allowed dose was 50 dose steps (50 units IDeg/1.8 mg liraglutide). IDeg treatment was initiated with 16 units, and titrated twice weekly to the fasting glycaemic target of 4.0-5.0 mmol/L (72-90 mg/dL) based on the mean fasting SMPG from 3 proceeding measurements as described for IDegLira. The maximum allowed dose was 50 units.
(§4) Subjects received IDegLira or IDeg by subcutaneous administration in addition to metformin. IDegLira or IDeg was injected subcutaneously in the thigh, upper arm (deltoid region) or abdomen once daily preferably at the same time every day. The injection area chosen were to remain unchanged throughout the trial, but rotation within the area was recommended.

[4] = system: adult human subjects with type 2 diabetes that were at high risk for cardiovascular events; experiment: CV risk score model and subgroup analysis of MACE based on the DEVOTE trial; assay type: in vivo; parameters: key to Estimate (risk of MACE with IDeg compared to IGlar): hazard ratio of MACE, IDeg vs IGlar; conditions: for Estimated hazard ratio (HR) for MACE by CV risk score: IDeg/IGlar
Description: Based on the DEVOTE trial, a cardiovascular (CV) risk score has been developed for individuals with established cardiovascular risk. This risk score was developed using available medical history, baseline information and cardiovascular events occurring during the trial. […] The variables are listed in descending order according to their impact on the overall risk of major adverse cardiovascular events (MACE), here consisting of cardiovascular death, non-fatal myocardial infarction, or non-fatal stroke. The combination of these variables yields an algorithm that can be used to determine the risk of future MACEs and to determine the benefit of being treated with IDeg compared to IGlar.
The CV risk score and estimated MACE hazard ratio for CV risk scores by quartiles based on number of events are presented in FIG. 1. […] This benefit is seen regardless of which of the individual predictors contribute to the high score.
For example, subjects with a BMI ≥30 kg/m^2 and diastolic blood pressure ≥80 mmHg, and subjects with a diastolic blood pressure ≥80 mmHg who were treated with statins would have a benefit with IDeg compared to IGlar in terms of risk of MACE (Table 11).

[5] = system: human subjects with type 2 diabetes inadequately controlled with basal insulin and metformin; experiment: Example 2: 26-week double-blind trial, IDegLira vs IDeg, both added on to metformin; conditions: 26 weeks of treatment
Procedure: as §1, §2, §3, §4

IGlar: Insulin glargine (Lantus®), commercially available basal insulin, active comparator
Mean body weight increase [1]: 1.8 kg
proportion of subjects experiencing confirmed hypoglycaemic episodes during the trial [1]: 49.1%
ΔDiastolic blood pressure (change from baseline) [1]: −1.4 mmHG
ΔHeart rate (change from baseline) [1]: −0.2 bpm
ΔSystolic blood pressure (change from baseline) [1]: −0.2 mmHG
n, number of subjects with a first MACE ([2]; all subjects): 356
proportion of subjects with a first MACE ([2]; all subjects): 9.3%
n, number of subjects with a first MACE ([2]; subgroup Africa): 18
proportion of subjects with a first MACE ([2]; subgroup Africa): 14.4%
n, number of subjects with a first MACE ([2]; subgroup Asia): 31
proportion of subjects with a first MACE ([2]; subgroup Asia): 9.4%
n, number of subjects with a first MACE ([2]; subgroup Female): 131
proportion of subjects with a first MACE ([2]; subgroup Female): 9.1%
n, number of subjects with a first MACE ([2]; subgroup Male): 225
proportion of subjects with a first MACE ([2]; subgroup Male): 9.5%

N^εB29—(N^α—(HOOC(CH2)14CO)-γ-Glu) desB30 human insulin [IDeg]
Adverse event and tolerability profiles [3]: consistent with previous findings
ΔHeart rate (change from baseline) [3]: −0.6 bpm
Estimated hazard ratio (HR) for MACE by CV risk score ([4]; CV risk score quartile High): 1.04
Estimated hazard ratio (HR) for MACE by CV risk score ([4]; CV risk score quartile Low): 1.02
Estimated hazard ratio (HR) for MACE by CV risk score ([4]; CV risk score quartile Moderate): 0.89
Estimated hazard ratio (HR) for MACE by CV risk score ([4]; CV risk score quartile Very High): 0.67
hazard ratio IDeg/IGlar, risk of MACE ([4]; patients who have a high CV risk score): < 1
Estimate (risk of MACE with IDeg compared to IGlar) ([4]; subgroup Age 65-75 years AND systolic blood pressure <140 mmHg): 0.70
Estimate (risk of MACE with IDeg compared to IGlar) ([4]; subgroup Age <65 years AND diastolic blood pressure ≥80 mmHg): 0.64
Estimate (risk of MACE with IDeg compared to IGlar) ([4]; subgroup Age <65 years AND treated with statins): 0.75
Estimate (risk of MACE with IDeg compared to IGlar) ([4]; subgroup BMI ≥30 kg/m^2 AND diastolic blood pressure ≥80 mmHg): 0.68
Estimate (risk of MACE with IDeg compared to IGlar) ([4]; subgroup Diastolic blood pressure <90 mmHg AND HDL ≥1.0 mmol/L): 0.80
Estimate (risk of MACE with IDeg compared to IGlar) ([4]; subgroup Diastolic blood pressure ≥80 mmHg AND treated with statins): 0.73
Estimate (risk of MACE with IDeg compared to IGlar) ([4]; subgroup Diastolic blood pressure ≥80 mmHg AND triglycerides >1.7 mmol/L): 0.69
Estimate (risk of MACE with IDeg compared to IGlar) ([4]; subgroup Established CV risk AND HDL ≥1.0 mmol/L): 0.78
Estimate (risk of MACE with IDeg compared to IGlar) ([4]; subgroup Established CV risk AND diastolic blood pressure ≥80 mmHg): 0.76
Estimate (risk of MACE with IDeg compared to IGlar) ([4]; subgroup Established CV risk AND pulse ≥70 bpm): 0.80
Estimate (risk of MACE with IDeg compared to IGlar) ([4]; subgroup Height <170 cm AND treated with statins): 0.75
Estimate (risk of MACE with IDeg compared to IGlar) ([4]; subgroup Non-White AND diastolic blood pressure <90 mmHg): 0.64
Estimate (risk of MACE with IDeg compared to IGlar) ([4]; subgroup Not Hispanic or Latino AND Non-White): 0.64
Estimate (risk of MACE with IDeg compared to IGlar) ([4]; subgroup Not Hispanic or Latino AND triglycerides >1.7 mmol/L): 0.79
Estimate (risk of MACE with IDeg compared to IGlar) ([4]; subgroup Previous smoker AND age <65 years): 0.73
Estimate (risk of MACE with IDeg compared to IGlar) ([4]; subgroup Previous smoker AND cholesterol ≥3 mmol/L): 0.79
Estimate (risk of MACE with IDeg compared to IGlar) ([4]; subgroup Previous smoker AND diastolic blood pressure ≥80 mmHg): 0.66
Estimate (risk of MACE with IDeg compared to IGlar) ([4]; subgroup Previous smoker AND treated with statins): 0.79
Estimate (risk of MACE with IDeg compared to IGlar) ([4]; subgroup Previous smoker AND triglycerides >1.7 mmol/L): 0.73
Estimate (risk of MACE with IDeg compared to IGlar) ([4]; subgroup Pulse ≥70 bpm AND diastolic blood pressure ≥80 mmHg): 0.74
Estimate (risk of MACE with IDeg compared to IGlar) ([4]; subgroup Pulse ≥70 bpm AND triglycerides >1.7 mmol/L): 0.76
Estimate (risk of MACE with IDeg compared to IGlar) ([4]; subgroup Pulse ≥70 mmHg AND treated with statins): 0.72
Estimate (risk of MACE with IDeg compared to IGlar) ([4]; subgroup Systolic blood pressure <140 mmHg AND HDL ≥1.0 mmol/L): 0.73
Estimate (risk of MACE with IDeg compared to IGlar) ([4]; subgroup Triglycerides >1.7 mmol/L AND HDL ≥1.0 mmol/L): 0.69
Estimate (risk of MACE with IDeg compared to IGlar) ([4]; subgroup Triglycerides >1.7 mmol/L AND treated with statins): 0.78
n, number of subjects with a first MACE ([2]; all subjects): 325
proportion of subjects with a first MACE ([2]; all subjects): 8.5%
Hazard Ratio (95% CI), time to first MACE ([2]; all subjects, MACE = CV death, non-fatal MI, non-fatal stroke, Cox model): 0.91 (0.78;1.06)
n, number of subjects with a first MACE ([2]; subgroup Africa): 6
proportion of subjects with a first MACE ([2]; subgroup Africa): 4.6%
n, number of subjects with a first MACE ([2]; subgroup Asia): 13
proportion of subjects with a first MACE ([2]; subgroup Asia): 4.1%
n, number of subjects with a first MACE ([2]; subgroup Female): 99
proportion of subjects with a first MACE ([2]; subgroup Female): 7.0%
n, number of subjects with a first MACE ([2]; subgroup Male): 226
proportion of subjects with a first MACE ([2]; subgroup Male): 9.4%
Hazard Ratio (95% CI), time to first MACE ([2]; subgroup Region: Africa): 0.30 (0.12; 0.77)
Hazard Ratio (95% CI), time to first MACE ([2]; subgroup Region: Asia): 0.42 (0.22; 0.81)
Hazard Ratio (95% CI), time to first MACE ([2]; subgroup Sex: Female): 0.76 (0.59; 0.99)
Hazard Ratio (95% CI), time to first MACE ([2]; subgroup Sex: Male): 0.99 (0.83; 1.20)
ΔDiastolic blood pressure (change from baseline) [5]: −0.7 mmHG
ΔSystolic blood pressure (change from baseline) [5]: −1.7 mmHG
